According to patent US20040077634A1, “Treatment of diseases characterized by excessive or insufficient cell death” (priority 2001, published 2004):

Columns and labels:
[1] = biological target: T1, apoptosome complex (Apaf-1 and caspase-9) (Homo sapiens, UniProt O14727+P55211); assay: Apoptosome formation: co-immunoprecipitation of Apaf-1 with caspase-9 in cell extract; assay type: binding; conditions: 100 μM
T1 construct: Caspase-9 antibody precipitated practically all caspase-9 present in the cell extract; endogenous in cells; host or cells: cell extract
T1 sequence (O14727 1-1248): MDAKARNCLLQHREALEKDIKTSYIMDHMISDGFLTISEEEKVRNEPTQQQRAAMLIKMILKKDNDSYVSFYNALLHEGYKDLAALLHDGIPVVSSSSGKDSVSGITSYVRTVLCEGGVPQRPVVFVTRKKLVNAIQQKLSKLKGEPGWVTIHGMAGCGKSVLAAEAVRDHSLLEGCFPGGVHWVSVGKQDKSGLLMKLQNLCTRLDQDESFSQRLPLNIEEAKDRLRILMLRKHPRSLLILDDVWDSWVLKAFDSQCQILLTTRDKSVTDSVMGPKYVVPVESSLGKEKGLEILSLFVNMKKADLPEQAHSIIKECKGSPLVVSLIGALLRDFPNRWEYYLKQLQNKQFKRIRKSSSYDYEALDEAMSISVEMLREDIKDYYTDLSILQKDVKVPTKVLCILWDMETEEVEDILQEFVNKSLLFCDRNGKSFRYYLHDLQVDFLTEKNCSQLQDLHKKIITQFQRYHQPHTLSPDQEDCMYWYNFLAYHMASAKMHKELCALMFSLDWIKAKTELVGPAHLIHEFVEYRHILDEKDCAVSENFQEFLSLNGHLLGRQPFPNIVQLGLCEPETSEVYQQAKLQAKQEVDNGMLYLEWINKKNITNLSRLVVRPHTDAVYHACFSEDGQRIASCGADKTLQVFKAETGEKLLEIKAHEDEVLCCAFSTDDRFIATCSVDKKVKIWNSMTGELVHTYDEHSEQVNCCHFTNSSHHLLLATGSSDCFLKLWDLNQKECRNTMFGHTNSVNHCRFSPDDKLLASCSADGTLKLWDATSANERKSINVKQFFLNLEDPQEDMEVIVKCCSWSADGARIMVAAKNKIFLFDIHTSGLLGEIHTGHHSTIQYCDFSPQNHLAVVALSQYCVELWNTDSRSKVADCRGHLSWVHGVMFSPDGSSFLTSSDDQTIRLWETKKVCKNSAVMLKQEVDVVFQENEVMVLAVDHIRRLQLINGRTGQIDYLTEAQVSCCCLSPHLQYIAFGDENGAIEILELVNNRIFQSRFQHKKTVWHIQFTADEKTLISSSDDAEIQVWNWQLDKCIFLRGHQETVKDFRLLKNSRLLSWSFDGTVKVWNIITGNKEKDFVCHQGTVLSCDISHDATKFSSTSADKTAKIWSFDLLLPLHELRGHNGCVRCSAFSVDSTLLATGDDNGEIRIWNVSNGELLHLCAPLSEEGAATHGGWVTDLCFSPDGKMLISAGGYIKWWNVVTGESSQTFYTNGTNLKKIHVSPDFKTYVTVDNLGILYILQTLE
T1 sequence (P55211 1-416): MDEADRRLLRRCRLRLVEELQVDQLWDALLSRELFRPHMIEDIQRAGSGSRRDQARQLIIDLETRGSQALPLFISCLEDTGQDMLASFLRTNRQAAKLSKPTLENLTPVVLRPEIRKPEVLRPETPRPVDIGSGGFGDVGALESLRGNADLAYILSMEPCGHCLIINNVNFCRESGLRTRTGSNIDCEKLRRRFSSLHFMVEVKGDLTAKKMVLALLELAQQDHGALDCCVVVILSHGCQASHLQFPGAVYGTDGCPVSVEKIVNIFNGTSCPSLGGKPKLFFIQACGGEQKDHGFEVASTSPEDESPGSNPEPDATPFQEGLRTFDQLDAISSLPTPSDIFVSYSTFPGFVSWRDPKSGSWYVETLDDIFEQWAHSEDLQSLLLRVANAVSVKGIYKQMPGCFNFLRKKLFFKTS
Method: Next, it was tested whether compound f interferes with the formation of apoptosome complex in response to Cc/dATP. Cell extracts were incubated with Cc/dATP in the presence or absence of 100 μM compound f or 1 μM zVAD-fmk for 1 hour prior to the immunoprecipitation (IP) of caspase-9. […] Hsp90, which has been proposed to associate with Apaf-1 and prevent oligomerization and caspase-9 recruitment, was not co-immunoprecipitated with caspase-9.

recombinant caspase-9 = biological target: T2, recombinant caspase-9 (Homo sapiens, UniProt P55211); assay: Recombinant caspase-9 activity, cleavage of LEHD-AFC; assay type: biochemical; conditions: 25 to 100 μM; LEHD-AFC substrate
T2 sequence (P55211 1-315 limits assumed): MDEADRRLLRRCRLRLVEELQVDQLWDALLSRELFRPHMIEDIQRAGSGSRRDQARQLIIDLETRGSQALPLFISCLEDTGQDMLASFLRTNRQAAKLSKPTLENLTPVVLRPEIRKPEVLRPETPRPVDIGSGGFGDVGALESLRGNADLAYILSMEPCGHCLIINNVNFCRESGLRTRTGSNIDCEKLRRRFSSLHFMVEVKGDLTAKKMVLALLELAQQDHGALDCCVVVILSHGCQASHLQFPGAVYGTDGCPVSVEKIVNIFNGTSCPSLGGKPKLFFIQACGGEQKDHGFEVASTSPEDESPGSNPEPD
T2 sequence (P55211 331-416 limits assumed): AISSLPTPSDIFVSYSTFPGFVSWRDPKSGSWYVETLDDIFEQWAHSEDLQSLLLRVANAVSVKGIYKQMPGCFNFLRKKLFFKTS
Method: The inhibition of the DEVDase activity in the in vitro caspase activation system could be due to a direct inhibition of caspase-9, -3, or -7 activities, or to the inhibition of the apoptosome formation. To test if compounds a, f, and g were specific caspase inhibitors, recombinant caspase-3 and caspase-9 were incubated with the three compounds and the enzymatic activities of caspases were monitored by analysing the cleavage of the caspase-3 substrate DEVD-AFC or the caspase-9 substrate LEHD-AFC, respectively.

[2] = test system: WEHI-S fibrosarcoma cells; assay: TNF-induced caspase-independent cell death of WEHI-S fibrosarcoma cells; assay type: cell-based; conditions: 50-10 μM
[3] = test system: caspase-9, caspase-3 and caspase-7 processing; DFF45/ICAD and PARP cleavage; assay: Processing of caspases and caspase substrates in Cc/dATP-stimulated cell extract, Western blotting; assay type: biochemical
Method: Activation of endogene caspases is induced by addition of 1 mM dATP and 1 μM horse heart cytochrome c to cytosolic extract (protein concentration; 5-10 mg/ml) in the presence of DEVD-AFC and the compound (final concentration 100 μM). Activated DEVD'ases (AFC release) is measured by fluorometry in 96-well plates at 37° C. After end measurements 2× LSB-Mechaptoethanol are added to the samples for assessment of caspase processing by immunoblot analysis.
Next, the effect of the compounds on the processing of caspases and caspase substrates in the in vitro model system was analysed by Western blotting. Caspase-9, caspase-3 and caspase-7 were processed into p35, p17, and p20 active fragments, respectively, in response to Cc/dATP. Accordingly, Cc/dATP induced a threefold induction in DEVDase activity and cleavage of the caspase-3 substrates DFF45/ICAD and PARP.

O=C(Nc1cccc(C(F)(F)F)c1)Nc1cc(Cl)ccc1C(=O)O [Compound f, [N-(2-Carboxy-5-chlorophenyl)-N′-(3-trifluoromethylphenyl)]urea]
ability of the caspase-9 antibody to precipitate caspase-9 [1]: no effect | co-immunoprecipitation of Apaf-1 and caspase-9 ([1]; 1 hour with Cc/dATP prior to IP of caspase-9): significantly inhibited | inhibition of recombinant caspase-9 activity (recombinant caspase-9): failed to inhibit | inhibition of the TNF-induced cell death [2]: No inhibition | processing of caspase-9 ([3]; 10 μM, compared with the vehicle control): slightly more procaspase-9 remained unprocessed | processing of caspase-9 ([3]; 100 μM): almost completely inhibited | inhibition of caspase-9, -3 and -7 processing and DFF45/ICAD and PARP cleavage ([3]; cell extracts stimulated with Cc/dATP, Western blot, dose dependence): dose-dependent inhibition
